From patent US20080033005A1, “METHODS FOR THE TREATMENT OF MULTIPLE SCLEROSIS” (AVENTIS PHARMACEUTICALS INC., priority 2004, published 2008)

Columns and labels:
[1] = tested on: Primary rat oligodendrocyte progenitor cells; assay: Oligodendrocyte toxicity assay, progenitor cells (OLP), SIN-1, LDH release; assay type: cell-based; conditions: compound 10 nm, 1 hour pretreatment; Sin-1 10 mM; LDH after 24 hours; oligodendrocyte progenitors
Procedure: (§1) Primary rat oligodendrocyte progenitor cells were obtained from the cerebra of 2-3 day old postnatal rats (Sprague Dawley). The meninges were removed and tissue was mechanically dissociated. Cells were plated on T75 flasks and fed with DMEM+10% FBS.
(§2) Enriched OLPs were collected by mechanical separation from the astrocytic monolayer and were expanded in serum free media (SFM) supplemented with the mitogens, PDGF-AA (10 ng/ml) and FGF-2 (10 ng/ml).
(§3) Cells were plated in 96-well plates, 10,000 per well. Medium was changed to fresh medium and cells were pretreated with compounds for 1 hour. Toxins were added to give the following final concentrations: • Sin-1 10 mM • Pyrogallol 500 μM • C2 ceramide 100 μM • Camptothecin 10 μM
(§4) After 24 hours, medium was removed and assayed for LDH activity using the Promega cytotox 96 kit (catalog# G1780). Results were calculated as percent protection against toxin-induced toxicity.

mature oligodendrocytes = assay: Oligodendrocyte toxicity assay, mature oligodendrocytes (OL), SIN-1, LDH release; assay type: cell-based, rat; conditions: compound 10 nm, 1 hour pretreatment, Sin-1 10 mM, LDH after 24 hours
Procedure: as §1, §2
To generate mature oligodendrocytes, progenitor cells were switched to SFM supplemented with IGF-1 (10 ng/ml) 24 hours after plating and cells were grown under these conditions for 7 days prior to experimental assays.
as §3, §4

SK-N-SH cells = conditions: U-0126 given with the tested compounds
Procedure: Cells from a human neuroblastoma cell line, SK-N-SH cells, were plated at 50,000 cells/well in Costar Biocoat 96-well poly-D-lysine coated plates in EMEM (Minimum Essential Medium Eagle with Earle's salts) containing penicillin/streptomycin, L-glutamine, sodium pyruvate, non-essential amino acids and sodium bicarbonate. Cells were grown overnight in a 37° C. incubator under 5% CO2. The next day, the medium was removed and replaced with fresh medium. Cells were pretreated with Serms for 1 hour, and SIN-1 (3-morpholinosydnonimine, which produces peroxynitrite) was added to give a final concentration of 2 or 10 mM. After 24 hours, the medium was removed and assayed for LDH activity using the Promega cytotox 96 kit (catalog# G1780). Results were calculated as percent protection against SIN-1 toxicity.

SMILES	% Protection (SIN-1*) OLP 10 nm [1] [%]	% Protection (SIN-1*) OL 10 nm (mature oligodendrocytes) [%]	effect of MEK inhibitor on the neuroprotection by the compounds (SK-N-SH cells)
COc1ccc(-c2sc3cc(O)ccc3c2Oc2ccc(OCCN3CCCCC3)cc2)cc1 [Arzoxifen]	1.485	8.237	–
N#CC(=C(/N)Sc1ccccc1N)/C(C#N)=C(\N)Sc1ccccc1N [U-0126]	–	–	inhibition of the neuroprotection
